From patent US5011849A, “Compounds for treating and preventing cognitive diseases and depression and methods of making same” (Hoffmann-La Roche Inc., priority 1988, dated 1991)

How the values were obtained:
MAO (substrate PEA) = target: T1, MAO (substrate PEA) (Rattus norvegicus, UniProt P19643); test: in vitro MAO inhibition in rat brain homogenate, substrate 14C-phenylethylamine (PEA); assay type: biochemical; conditions: substrate 14C-phenylethylamine (PEA) 2.10^-5 Mol/l, pH 7.4, 37° C., preincubation 30 minutes, incubation 10 minutes
T1 construct: 20 μl of rat brain homogenate; from tissue; host or cells: rat brain homogenate
T1 sequence (P19643 1-520): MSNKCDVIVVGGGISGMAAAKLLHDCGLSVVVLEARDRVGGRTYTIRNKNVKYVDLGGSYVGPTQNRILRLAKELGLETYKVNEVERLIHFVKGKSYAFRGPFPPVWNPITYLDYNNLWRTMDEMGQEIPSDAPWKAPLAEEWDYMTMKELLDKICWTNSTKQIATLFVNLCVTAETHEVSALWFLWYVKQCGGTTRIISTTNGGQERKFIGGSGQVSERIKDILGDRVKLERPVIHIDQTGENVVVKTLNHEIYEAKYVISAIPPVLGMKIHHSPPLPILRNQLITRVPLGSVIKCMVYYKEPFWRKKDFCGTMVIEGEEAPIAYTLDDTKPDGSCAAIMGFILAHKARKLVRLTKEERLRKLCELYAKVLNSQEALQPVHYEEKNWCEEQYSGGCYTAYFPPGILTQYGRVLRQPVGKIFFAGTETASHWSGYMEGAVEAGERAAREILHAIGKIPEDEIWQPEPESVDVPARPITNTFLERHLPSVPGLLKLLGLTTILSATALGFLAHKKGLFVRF
Procedure: (§1) The MAO inhibiting activity of the compounds in accordance with the invention can be determined using standard methods. Thus, the preparations to be tested were subjected to the in vitro test described hereinafter, which followed the method published by R. J. Wurtmann and J. A. Axelrod [Biochem. Pharmac. 12, 1439-1441 (1963)].
(§2) Isolated rat brains are homogenized in the ratio 1:4 (weight/volume) in 0.1 molar potassium phosphate buffer (pH 7.4). whereupon the homogenates are diluted in the ratio 1:4 (volume/volume) with the same buffer and stored at -20°. A mixture of the following composition is used for the incubation:
(§3) 100 μl of 1M phosphate buffer (pH 7.4);
(§4) 100 μl solubilizate of the substance to be tested in water or dimethyl sulfoxide;
(§5) 20 μl of rat brain homogenate; and as the substrate
(§6) 80 μl of ^14 C-serotonin (5-HT) or ^14 C-phenylethylamine (PEA), in each case 100,000 decays per minute, corresponding to a final concentration of 2.10^-4 Mol/l and, respectively, 2.10^-5 Mol/l.
(§7) Prior to the addition of the substrate a preincubation at 37° C. was effected for 30 minutes. The incubation (in the presence of the substrate) was also effected at 37° C. and lasted 10 minutes.
(§8) The reaction is stopped by the addition of 200 μl of 2N hydrochloric acid.
(§9) The deaminated product, depending on the use of 5-HT or of PEA as the substrate, is extracted by shaking for 10 minutes with 5 ml of diethyl ether or with 5 ml of n-heptane, whereupon the mixture is centrifuged, the aqueous phase is frozen in a dry-ice bath and the organic phase is poured into a counting glass.
(§10) The activity of the MAO in comparison to control homogenates (without substance to be tested) is determined on the basis of the β-counter value and the IC 50 is defined as that concentration of a substance to be tested which decreases the activity of the MAO in the substrate 5-HT or PEA to 50%.

MAO (substrate 5-HT) = target: T2, MAO (substrate 5-HT) (Rattus norvegicus, UniProt P21396); test: in vitro MAO inhibition in rat brain homogenate, substrate 14C-serotonin (5-HT); assay type: biochemical; conditions: substrate 14C-serotonin (5-HT) 2.10^-4 Mol/l, pH 7.4, 37° C., preincubation 30 minutes, incubation 10 minutes, read-out: IC 50, 5-HT
T2 construct: 20 μl of rat brain homogenate; from tissue; host or cells: rat brain homogenate
T2 sequence (P21396 1-526): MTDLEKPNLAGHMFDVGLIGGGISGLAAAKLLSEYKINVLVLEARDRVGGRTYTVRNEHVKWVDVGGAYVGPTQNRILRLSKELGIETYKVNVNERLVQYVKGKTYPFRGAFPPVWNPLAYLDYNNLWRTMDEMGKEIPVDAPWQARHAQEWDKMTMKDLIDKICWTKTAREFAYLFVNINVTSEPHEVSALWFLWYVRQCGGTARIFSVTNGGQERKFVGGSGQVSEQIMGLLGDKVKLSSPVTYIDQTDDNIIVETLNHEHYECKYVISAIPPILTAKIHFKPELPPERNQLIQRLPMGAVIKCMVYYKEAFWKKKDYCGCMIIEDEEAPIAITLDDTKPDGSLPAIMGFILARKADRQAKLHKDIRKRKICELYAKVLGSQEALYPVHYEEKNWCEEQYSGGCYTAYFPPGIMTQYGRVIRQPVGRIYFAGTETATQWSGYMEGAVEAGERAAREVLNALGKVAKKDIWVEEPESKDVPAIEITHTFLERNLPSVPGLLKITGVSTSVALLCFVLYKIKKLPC
Procedure: as §1, §2, §3, §4, §5, §6, §7, §8, §9, §10

| IC50 (MAO (substrate PEA)) [nM] | IC50 (MAO (substrate 5-HT)) [nM] | SMILES |
| --- | --- | --- |
| > 10000 | 20 | NCCNC(=O)c1ncsc1-c1cccc(F)c1 [5-(3-fluorophenyl)-4-thiazol, N-(2-aminoethyl)-5-(3-fluorophenyl)-4-thiazolecarboxamide] |
| 3600 | 120 | NCCNC(=O)c1ncsc1-c1ccc(F)cc1F [5-(2,4-difluorophenyl)-4-thiazol, N-(2-aminoethyl)-5-(2,4-difluorophenyl)-4-thiazolecarboxamide] |
| > 10000 | 40 | NCCNC(=O)c1ncsc1-c1ccccc1F [5-(2-fluorophenyl)-4-thiazol, N-(2-aminoethyl)-5-(2-fluorophenyl)-4-thiazolecarboxamide] |
| 100000 | 60 | NCCNC(=O)c1ncsc1-c1ccc(F)cc1 [5-(4-fluorophenyl)-4-thiazol, N-(2-aminoethyl)-5-(4-fluorophenyl)-4-thiazolecarboxamide] |
| 300 | 7 | NCCNC(=O)c1ncsc1-c1cc(Cl)cc(Cl)c1 [5-(3,5-dichlorophenyl)-4-thiazol, N-(2-aminoethyl)-5-(3,5-dichlorophenyl)-4-thiazolecarboxamide] |
| 2000 | 22 | NCCNC(=O)c1ncoc1-c1ccco1 [5-(2-furyl)-4-oxazol, N-(2-aminoethyl)-5-(2-furyl)-4-oxazolecarboxamide] |
| > 100000 | < 10 | NCCNC(=O)c1ncoc1-c1ccc(Cl)cc1 [5-(4-chlorophenyl)-4-oxazol, N-(2-aminoethyl)-5-(4-chlorophenyl)-4-oxazolecarboxamide] |
| 20000 | 20 | NCCNC(=O)c1ncsc1-c1ccccc1 [5-phenyl-4-thiazol, N-(2-aminoethyl)-5-phenyl-4-thiazolecarboxamide] |
